Reference: patent US9101640B2, “Use of Danshensu, Notoginsenoside R1 or their combination in preparation of medicaments for preventing and treating diseases caused by microcirculation disorder” (Tasly Pharmaceutical Group Co., Ltd., priority 2009, dated 2015)
“Also recorded” adds a separate entry of the source.

Assays:
Format in all cases: in vivo
[1] = tested on: peroxides in the mesenteric venular walls; test: DHR fluorescence intensities of venular walls (production of peroxides) after I/R; conditions: rat mesenteric I/R
Experimental: The rats were anesthetized by intraperitoneal injection of pentobarbital sodium (30 mg/kg body weight (BW)). PE venous cannulas (#3) were cannulated into the right jugular of the rats and detained. The abdomen of each rat was incised in a length of 20-30 mm along the midline. The ileum near the ileocecal junctions was gently taken out and unfolded onto the object stage mounted with glass slides. The unfolded mesenteries were continuously dripped with Krebs-Ringer buffering solution at 37° C. The microcirculatory dynamics of the mesenteries was observed under white light (12V, 100 W) using an inverted biomicroscope (Diaphot TMD-2S, Nikon, Tokyo) placed in the thermostat at 37° C. Observation sites were selected under 20× object lens, and a video recording system with a time-displaying function was used to record what had been observed on S-VHS tape and preserved. […] PE cannulas were used to ligate non-circulatory mesenteric arteries and veins, so as to observe the arteries and veins for 10 min, and then the ligation was lifted. Time was adjusted to zero and the microcirculatory dynamics under the same visual field was continuously observed for 60 min. […]
(§1) DLA was administrated at 10 min after I/R until the end of the observation by continuously intravenous drip via jugular at a dosage of 5 mg/kg/h. […]
(§2) Wherein, 6 rats in each group were taken out, these rats were used for observing the following aspects: the venular diameters; leukocytes rolling, adhesion, and emigration and DHR fluorescence intensities of the venular walls. […]
(§3) Microcirculatory dynamics was continuously recorded using an inverted biomicroscope […] recording system (CC-090, Flovel, Tokyo) and SIT fluorescent camera (C-2400-08, Hamamatsu Photonics, Hamamatsu).
The H2O2-sensitive fluorescent probes DHR ([…]) were continuously dripped onto the surfaces of the rat's mesenteries to be observed. An inverted fluorescence microscope (DM-IRB, Leica, Germany) with an excitation wavelength at 455 nm and a mercury lamp as an excitation source (100 W) was used. The images were recorded with a CD camera at the following time points: before ischemia, and 1 min, 10 min, 20 min, 30 min, 40 min, 50 min and 60 min after the beginning of the reperfusion. The fluorescence intensities of the venular wall and the extravascular interstitial substance were measured with a Image-Pro Plus 5.0 software. The […] value between the fluorescence intensity of the venular wall and that of the extravascular interstitial substance before ischemia was taken as a baseline. The ratio of the changing value at each time point to the baseline were calculated, which was used to indicate the changing rate of the DHR fluorescence intensities of the rat's mesenteric venular walls.

[2] = tested on: leukocytes adhered to the mesenteric venules; test: Counting of leukocytes adhered to venular walls after I/R; conditions: rat mesenteric I/R
Experimental: (§4) The rats were anesthetized by intraperitoneal injection of pentobarbital sodium (30 mg/kg body weight (BW)). PE venous cannulas (#3) were cannulated into the right jugular of the rats and detained. The abdomen of each rat was incised in a length of 20-30 mm along the midline. The ileum near the ileocecal junctions was gently taken out and unfolded onto the object stage mounted with glass slides. The unfolded mesenteries were continuously dripped with Krebs-Ringer buffering solution at 37° C. The microcirculatory dynamics of the mesenteries was observed under white light (12V, 100 W) using an inverted biomicroscope (Diaphot TMD-2S, Nikon, Tokyo) placed in the thermostat at 37° C. Observation sites were selected under 20× object lens, and a video recording system with a time-displaying function was used to record what had been observed on S-VHS tape and preserved. […] Normal saline was administrated at 20 min before ischemia until the end of the observation by continuously intravenous drip via jugular at a dosage of 5 mg/kg/h. PE cannulas were used to ligate non-circulatory mesenteric arteries and veins, so as to observe the arteries and veins for 10 min, and then the ligation was lifted. Time was adjusted to zero and the microcirculatory dynamics under the same visual field was continuously observed for 60 min.
(§5) DLA was administrated at 20 min before ischemia until the end of the observation by continuously intravenous drip via jugular at a dosage of 5 mg/kg/h.
(§6) R1 was administrated at 20 min before ischemia until the end of the observation by continuously intravenous drip via jugular at a dosage of 5 mg/kg/h.
(§7) The combination of DLA and R1 in a weight ratio of 4:1 was administrated at 20 min before ischemia until the end of the observation by continuously intravenous drip via jugular at a dosage of 5 mg/kg/h.
(§8) The combination of DLA and R1 in a weight ratio of 1:1 was administrated at 20 min before ischemia until the end of the observation by continuously intravenous drip via jugular at a dosage of 5 mg/kg/h. […]
as §2, §3
The leukocytes adhered to the venules which stayed at one site on the venular walls for at least 30 s the adherent leukocytes) was counted from the replayed images at the following time points: before ischemia, and 1 min, 10 min, 20 min, 30 min, 40 min, 50 min and 60 min after the beginning of the reperfusion. […]

[3] = tested on: mast cells in the mesenteric interstitial substance; test: Percentage of mast cells degranulation after I/R (toluidine blue); conditions: 60 min of reperfusion, rat
[4] = tested on: plasma albumin leakage from the mesenteric venules; test: FITC-labeled albumin leakage from venules after I/R; conditions: rat mesenteric I/R; for inhibition of the plasma albumin leakage from the venules after reperfusion: post-administration, 5 mg/kg/h continuous i.v. drip from 20 min after ischemia (DLA: 10 min after I/R); for inhibition of the plasma albumin leakage from the venules after I/R: pre-administration, 5 mg/kg/h continuous i.v. drip from 20 min before ischemia
Experimental: as §4, §5, §6, §7
The combination of DLA and R1 in a weight ratio of 1:1 was administrated at 20 min before ischemia until the end of the observation by continuously intravenous drip via jugular at a dosage of 5 mg/kg/h.
The combination of DLA and R1 in a weight ratio of 1:4 was administrated at 20 min before ischemia until the end of the observation by continuously intravenous drip via jugular at a dosage of 5 mg/kg/h.
as §1, §2
Microcirculatory dynamics was continuously recorded using an inverted biomicroscope […] recording system (CC-090, Flovel, Tokyo) and SIT fluorescent camera (C-2400-08, Hamamatsu Photonics, Hamamatsu). […]

[5] = tested on: leukocytes rolling along the mesenteric venular walls; test: Counting of leukocytes rolling along inner walls of venules after I/R; conditions: rat mesenteric I/R
Experimental: as §4, §5, §6, §7, §8, §2, §3
The leukocytes roiling along the inner walls of the venules in a length of 200 μm within 10 s was counted from the replayed images at the following time points: before ischemia, and 1 min, 10 min, 20 min, 30 min, 40 min, 50 min and 60 min after the beginning of the reperfusion.

[6] = post-administration, 5 mg/kg/h continuous i.v. drip from 20 min after ischemia (DLA: 10 min after I/R)
[7] = pre-administration, 5 mg/kg/h continuous i.v. drip from 20 min before ischemia
[8] = pre-administration, 5 mg/kg/h continuous i.v. drip from 20 min before ischemia, 5 mg/kg

Structure (SMILES) | inhibition of the production of peroxides in the mesenteric venular walls after I/R (DHR fluorescence) [1, 6] | inhibition of the production of peroxides in the mesenteric venular walls after I/R (DHR fluorescence) [1, 7] | inhibition of the increase in the number of leukocytes adhered to the mesenteric venules caused by I/R [2, 6] | inhibition of the increase in the number of leukocytes adhered to the mesenteric venules caused by I/R [2, 7] | inhibition of the increase in the percentage of mast cells degranulation caused by I/R [3, 6] | inhibition of the increase in the percentage of mast cells degranulation caused by I/R [3, 7] | inhibition of the plasma albumin leakage from the venules after reperfusion [4] | inhibition of the plasma albumin leakage from the venules after I/R [4] | inhibition of leukocytes rolling along the mesenteric venular walls caused by I/R [5, 6] | inhibition of leukocytes rolling along the mesenteric venular walls caused by I/R [5, 8] | inhibition of leukocytes rolling along the mesenteric venular walls caused by I/R ([5]; post-administration, 5 mg/kg/h continuous i.v. drip from 20 min after ischemia (DLA: 10 min after I/R), 5 mg/kg)
O=C(O)C(O)Cc1ccc(O)c(O)c1 (centres unmarked) [DLA, 3,4-dihydroxyphenyl lactic acid] | had significant inhibitory effects; also recorded: has the same effects as those of the pre-administration | had significant inhibitory effects; also recorded: can inhibit | had significant inhibitory effects; also recorded: has the same effects as those of the pre-administration | had significant inhibitory effects; also recorded: can inhibit | had no significant inhibitory effects; also recorded: without the significant inhibition | can significantly inhibit | had significant inhibitory effects; also recorded: has the same effects as those of the pre-administration | had significant inhibitory effects; also recorded: can inhibit | has the same effects as those of the pre-administration | can apparently suppress; also recorded: can inhibit | –
CC(C)=CCC[C@](C)(O[C@@H]1O[C@H](CO)[C@@H](O)[C@H](O)[C@H]1O)[C@H]1CC[C@]2(C)[C@@H]1[C@H](O)C[C@@H]1[C@@]3(C)CC[C@H](O)C(C)(C)[C@@H]3[C@@H](O[C@@H]3O[C@H](CO)[C@@H](O)[C@H](O)[C@H]3O[C@@H]3OC[C@@H](O)[C@H](O)[C@H]3O)C[C@]12C [R1, Notoginsenoside R1] | had no significant inhibitory effects; also recorded: has no inhibitory effects | had no significant inhibitory effects; also recorded: has no inhibitory effects | had significant inhibitory effects; also recorded: can inhibit | had significant inhibitory effects; also recorded: can inhibit | can significantly inhibit | can significantly inhibit | had significant inhibitory effects; also recorded: can inhibit | had significant inhibitory effects; also recorded: can inhibit | – | had no significant inhibitory effects; also recorded: have no significant inhibitory effects | had no significant inhibitory effects; also recorded: have no significant inhibitory effects
